Test results: patent US8658698B2, “Insecticidal compounds” (Syngenta Crop Protection, LLC, priority 2008, dated 2014)

Assays:
Assay type in all cases: in vivo
[1] = tested on: Diabrotica balteata (Corn Root Worm); test: Diabrotica balteata larvae test on artificial diet; settings: same protocol, 200 ppm (18 ppm in well), 5 days
Protocol: (§1) This Example illustrates the pesticidal/insecticidal properties of compounds of formula (I). The tests were performed as follows:
(§2) Cotton leaf discs were placed on agar in a 24-well microtiter plate and sprayed with test solutions at an application rate of 200 ppm. After drying, the leaf discs were infested with 5 L1 larvae. The samples were checked for mortality, feeding behavior, and growth regulation 3 days after treatment (DAT). The following compounds gave at least 80% control of Spodoptera littoralis: A2, A6, A8, A9, A10, A11, A13, A15, A19, A20, A22, A25, A27, A29, A31, A33, A35, A41, A50, A55, A60, A65, A73, A88, A92, and A94. Heliothis virescens (Tobacco Budworm): Eggs (0-24 h old) were placed in 24-well microtiter plate on artificial diet and treated with test solutions at an application rate of 200 ppm (concentration in well 18 ppm) by pipetting. After an incubation period of 4 days, samples were checked for egg mortality, larval mortality and growth regulation. The following compounds gave at least 80% control of Heliothis virescens: A2, A3, A4, A5, A6, A7, A9, A10, A11, A13, A15, A19, A20, A22, A25, A26, A27, A28, A29, A31, A32, A33, A35, A38, A40, A41, A43, A46, A55, A59, A60, A65, A69, A70, A71, A73, A74, A75, A77, A79, A80, A82, A86, A88, A89, A90, A92, A94, A96, A98, and A100. Plutella xylostella (Diamond Back Moth): A 24-well microtiter plate (MTP) with artificial diet was treated with test solutions at an application rate of 200 ppm (concentration in well 18 ppm) by pipetting. After drying, the MTP's were infested with L2 larvae (7-12 per well). After an incubation period of 6 days, samples were checked for larval mortality and growth regulation. The following compounds gave at least 80% control of Plutella xylostella: A3, A4, A5, A6, A7, A8, A10, A15, A16, A18, A19, A20, A22, A25, A26, A27, A28, A29, A31, A32, A33, A35, A38, A40, A55, A69, A71, A73, A74, A75, A76, A77, A78, A80, A82, A86, A87, A88, A89, A92, A94, A96, A97, A98, and A99. Diabrotica balteata (Corn Root Worm): A 24-well microtiter plate (MTP) with artificial diet was treated with test solutions at an application rate of 200 ppm (concentration in well 18 ppm) by pipetting. After drying, the MTP's were infested with larvae (L2) (6-10 per well). After an incubation period of 5 days, samples were checked for larval mortality, and growth regulation. The following compounds gave at least 80% control of Diabrotica balteata: A5, A6, A7, A14, A15, A18, A24, A35, A53, A55, A70, A71, A75, A79, A84, A85, A88, A92, A93, A95, A96, A97, A98, A99, A100, A101, A102, A103, and A104. Myzus persicae (Green Peach Aphid): Each well of a 24-well microtiter plate is filled with 0.6 ml 30% sucrose solution, containing 12.5 ppm of the test compounds. The wells are covered with streched parafilm and infested with a mixed population of Myzus persicae. After an incubation period of 6 days, samples are checked for mortality (feeding activity). The following compounds gave at least 80% control of Myzus persicae: A4, A6, A10, A11, A15, A19, A20, A24, A27, A29, A33, A34, A36, A37, A39, A40, A41, A42, A43, A44, A45, A46, A47, A48, A49, A55, A60, and A82. Tetranychus urticae (Two-Spotted Spider Mite): Bean leaf discs on agar in 24-well microtiter plates were sprayed with test solutions at an application rate of 200 ppm. After drying, the leaf discs are infested with mite populations of mixed ages. 8 days later, discs are checked for egg mortality, larval mortality, and adult mortality. The following compounds gave at least 80% control of Tetranychus urticae: A6, A11, A15, A19, A20, A22, A26, A35, A58, and A64.

[2] = tested on: Heliothis virescens (Tobacco Budworm); test: Heliothis virescens egg test on artificial diet; settings: same protocol, 200 ppm (18 ppm in well), 4 days
Protocol: as §1, §2

[3] = tested on: Tetranychus urticae (Two-Spotted Spider Mite); test: Tetranychus urticae bean leaf disc spray test; settings: same protocol, 200 ppm, 8 days
Protocol: as §1, §2

[4] = tested on: Spodoptera littoralis (Egyptian Cotton Leafworm); test: Spodoptera littoralis cotton leaf disc spray test; settings: same protocol, 200 ppm, 3 DAT
Protocol: as §1
Spodoptera littoralis (Egyptian Cotton Leafworm)
as §2

[5] = tested on: Myzus persicae (Green Peach Aphid); test: Myzus persicae sucrose solution feeding test; settings: same protocol, 12.5 ppm, 6 days
Protocol: as §1, §2

[6] = tested on: Plutella xylostella (Diamond Back Moth); test: Plutella xylostella larvae test on artificial diet; settings: same protocol, 200 ppm (18 ppm in well), 6 days
Protocol: as §1, §2

Measured: effect on mortality, feeding behavior, or growth regulation

CCCCNC(=O)c1ccc(C(=O)Nc2c(C)cc(C(F)(C(F)(F)F)C(F)(F)F)cc2C)cc1C [A1, N-1-butyl-N-4-[2,6-dimethyl-4-(1,2,2,2-tetrafluoro-1-trifluoro-methyl-ethyl)-phenyl]-2-methyl-terephthalamide]
no or little effect: all assays above

CCOC(=O)C1CC=CCC1NC(=O)c1ccc(C(=O)Nc2c(C)cc(C(F)(C(F)(F)F)C(F)(F)C(F)(F)F)cc2CC)cc1C (stereo not drawn) [A12]
no or little effect: all assays above

CCc1cc(C(F)(C(F)(F)F)C(F)(F)C(F)(F)F)cc(C)c1NC(=O)c1ccc(C(=O)NC(C)COC)c(C)c1 (stereo not drawn) [A17]
no or little effect: all assays above

CCc1cc(C(F)(C(F)(F)F)C(F)(F)C(F)(F)F)cc(C)c1NC(=O)c1ccc(C(=O)NC2CCCCC2C)c(C)c1 (stereo not drawn) [A21]
no or little effect: all assays above

CCc1cc(C(F)(C(F)(F)F)C(F)(F)C(F)(F)F)cc(C)c1NC(=O)c1ccc(C(=O)NCCCN2CCCC2)c(C)c1 (stereo not drawn) [A23]
no or little effect: all assays above

CCc1cc(C(F)(C(F)(F)F)C(F)(F)C(F)(F)F)cc(C)c1NC(=O)c1ccc(C(=O)NCc2ccccc2OC(F)(F)F)c(C)c1 (stereo not drawn) [A30]
no or little effect: all assays above

CCc1cc(C(F)(C(F)(F)F)C(F)(F)C(F)(F)F)cc(C)c1NC(=O)c1ccc(C(=O)Nc2ccccc2-c2cc3ccccc3[nH]2)c(C)c1 (stereo not drawn) [A51]
no or little effect: all assays above

CCc1cc(C(F)(C(F)(F)F)C(F)(F)C(F)(F)F)cc(C)c1NC(=O)c1ccc(C(=O)Nc2ccccc2N2CCOCC2)c(C)c1 (stereo not drawn) [A52]
no or little effect: all assays above

CCc1cc(C(F)(C(F)(F)F)C(F)(F)C(F)(F)F)cc(C)c1NC(=O)c1ccc(C(=O)Nc2cc(C)nn2C)c(C)c1 (stereo not drawn) [A54]
no or little effect: all assays above

CCc1cc(C(F)(C(F)(F)F)C(F)(F)C(F)(F)F)cc(C)c1NC(=O)c1ccc(C(=O)Nc2n[nH]c(SC)n2)c(C)c1 (stereo not drawn) [A56]
no or little effect: all assays above

CCc1cc(C(F)(C(F)(F)F)C(F)(F)C(F)(F)F)cc(C)c1NC(=O)c1ccc(C(=O)Nc2ncccc2C)c(C)c1 (stereo not drawn) [A57]
no or little effect: all assays above
